System: Menschlicher Saccus endolymphaticus
Experiment: Light-microscopic autoradiography of 125I-arginine-vasopressin binding on frozen tissue sections
Set-up: species or system menschlich
Conditions: overnight at 4 °C; unspecific binding checked with 10 µM unlabelled Arginin-Vasopressin
Procedure: Menschlicher Saccus endolymphaticus wurde von sechs Autopsien und zwei operierten Patienten mit Einwilligung der Verwandten bzw. der Patienten erhalten. Gefrorene Schnitte (20 µm) wurden auf einem Kryostaten bei -16 °C geschnitten, auf Gelatine-beschichtete Plättchen aufgebracht und über Nacht unter Vakuum bei 4 °C gelagert. […] Die radiomarkierten Schnitte wurden mit NTB-2 Nuklearemulsion (Eastman Kodak) beschichtet und für die lichtmikroskopische Autoradiographie präpariert. Die beschichteten Plättchen wurden in der Dunkelheit bei 4 °C für drei bis acht Tage gelagert. Nach Entwickeln und Fixieren wurden die Plättchen mit Haematoxylin/Eosin gefärbt.

## ^125I-Arginin-Vasopressin [radioaktivem Vasopressin]
  Bindung im Epithel des endolymphatischen Sacks: spezifische Bindung

Source: patent EP1028725B1, “USE OF VASOPRESSIN ANTAGONISTS FOR TREATING DISTURBANCES OR ILLNESSES OF THE INNER EAR” (Otogene Aktiengesellschaft, priority 1997, dated 2004)
